Assays:
[1] = system: ABCA1 protein; test: ABCA1 protein - J774 (immunoblot); type: cell-based
Experimental: In vitro Immunoblot. Cells were lysed with RIPA buffer (Sigma) containing protease/phosphatase inhibitors (Cocktails II and III, respectively, EMD Millipore). Protein was quantified by BCA assay (Thermo Fisher Scientific). Denatured proteins were separated by gel electrophoresis (NuPage™ 4-12% Bis-Tris, Invitrogen) in MOPS running buffer at 120 V for 1 hour. Proteins were transferred to PDVF membranes (iBlot2). Membrane was blocked in 5% skim milk for 1 hour, incubated with primary antibody at 4° C. overnight, washed with TBST, and then incubated with HRP-linked secondary antibody (Cell Signaling Technology) for 1 hour at room temperature. After TBST wash, membrane was imaged using SUPERSIGNAL® West Femto™ substrate (Thermo Fisher Scientific) on Azure Biosystems c400 imager. Antibodies used: Abcam ab18180 (ABCA1, RRID:AB 444302), Thermo Fisher MA5-11685 (SREBP1, RRID:AB_10984077), Invitrogen MA5-15738 (GAPDH, RRID:AB_10977387).

[2] = biological target: T1, LXRβ (Homo sapiens, UniProt P55055); test: LXRβ NHR screen (DiscoverX NHR-Scan, β-gal reporter); type: cell-based
T1 sequence (P55055 1-460): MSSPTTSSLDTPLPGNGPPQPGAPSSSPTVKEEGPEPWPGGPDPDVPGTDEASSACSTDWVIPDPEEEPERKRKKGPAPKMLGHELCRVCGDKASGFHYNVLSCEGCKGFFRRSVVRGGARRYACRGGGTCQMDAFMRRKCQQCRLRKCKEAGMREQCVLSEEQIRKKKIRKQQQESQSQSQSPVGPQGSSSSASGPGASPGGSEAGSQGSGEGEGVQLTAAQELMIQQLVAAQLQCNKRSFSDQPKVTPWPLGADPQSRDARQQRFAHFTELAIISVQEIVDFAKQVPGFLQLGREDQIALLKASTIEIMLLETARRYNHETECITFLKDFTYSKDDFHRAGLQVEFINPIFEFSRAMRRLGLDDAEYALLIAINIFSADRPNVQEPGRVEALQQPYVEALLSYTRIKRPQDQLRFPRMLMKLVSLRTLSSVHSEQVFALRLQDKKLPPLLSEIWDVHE
Experimental: Receptor Binding Assays. Nuclear hormone (NHR) assays were performed by DiscoverX (Fremont, CA) on their NHR-Scan platform of cell-based protein-protein interaction assays. This platform uses a […] reporter that activates upon interaction of full-length receptor protein with steroid coactivator receptor peptides. In agonist mode, activity of CL2-57 at 10 μM was compared to maximal activity of published positive control agonists; in antagonist mode, reduction in activity with 10 μM CL2-57 from that observed at […] of published agonists was quantified.

LXRβ NHR screen, activity of CL2-57 (10 μM) as % of T0901317 (1 μM) ([2]; 10 μM): 75%
LXR β/α selectivity by Emax ([2]; cell-based β-gal reporter assays): 2.5 fold
Functional mode at LXR ([2]; cell-based β-gal reporter assays, 10 μM): partial LXR agonist
SMILES: CCOC(=O)c1cccc(NC(=O)c2sc(Cl)cc2S(=O)(=O)N(C)c2ccc(OCC)c(OCC)c2)c1 [CL2-57, ethyl 3-(5-chloro-3-(N-(3,4-diethoxyphenyl)-N-methylsulfamoyl)thiophene-2-carboxamido) benzoate]
ABCA1 protein - J774, activity of CL2-57 (10 μM) as % of T0901317 (1 μM) ([1]; 10 μM): 132%
ABCA1 protein ([1]; J774 macrophage cells): Increased
